{"source": "patent US9133417B2", "about": "“Liquid cleaning and disinfecting compositions comprising an assymetrically branched amine oxide” (THE PROCTER & GAMBLE COMPANY, priority 2012, dated 2015)", "conditions_in_all_cases": "Shake Flask, 1 hour contact (T1h vs T0), incubation 32 °C 24 hours; test concentration not given", "key": {"[1]": {"test_system": "Pseudomonas Aeruginosa (PA) CIP 82.113", "experimental": "(§1) The antibacterial efficacy was tested following the below Shake Flask protocol:\n(§2) • Microbial strains: Staphylococcus aureus (SA) CIP 4.83, Escherichia Coli (EC) CIP 53.126, Pseudomonas Aeruginosa (PA) CIP 82.113 • Culture media: TSA medium—Neutralizing medium (Dey Engley Broth)—Buffered Peptoned water (BPW-F)—Shake flask bottles—Physiological water • Incubator Shake Flask Protocol: ASTM E2149 Shake Flask Method • Inoculum counting: • For each strain, prepare an inoculum at 0.5 Mc Farland (McF). Dilute 1 ml of the inoculum with 9 ml of physiological water. Select 1 ml of the resulting dilution and dilute again with 9 ml of physiological water. Execute 5 dilution steps accordingly so that a 10^−5 dilution is obtained. • Recover 100 microliter of the 10^−5 dilution and inoculate 2 petri dishes. • Add 20 ml of TSA medium. • Incubate at 32+/−0.5° C. during 24 hours • Negative control: • Put 5 ml of SA, EC or PA inoculums into a shake flask. Add 45 ml of pure BPW-F solution. • Dilute twice in neutralizing medium: Recover 1 ml of the pure solution and add 9 ml of the neutralizing medium (=10^−1 and 10^−2 dilution). • Wait 5 minutes and put 100 microliter of the pure solution and the 10^−2 dilution into 2 petri dishes, add 20 ml of TSA medium (T0). • Do the same operation after 1 hour (T1h). • Incubate at 32+/−0:5° C. during 24 hours • Sample testing: • Prepare a solution at a specified concentration (see data tables for actual concentrations as 100% active—final volume 50 ml). For example, for a 50% (V/V), dilute 25 ml of product with 20 ml of BPW-F and 5 ml of the inoculums (SA, EC or PA) at 0.5 McF. • Dilute twice in neutralizing medium: Recover 1 ml of the pure solution and add 9 ml of the neutralizing medium (=10^−1 and 10^−2 dilution). • Wait 5 minutes and put 100 microliter of the pure solution and the 10^−2 dilution into 2 petri dishes, add 20 ml of TSA medium (T0). • Do the same operation after 1 hour (T1h). • Incubate at 32+/−0.5° C. during 24 hours • Calculation of log reduction: • The log reduction is calculated as log (T0/T1h)"}, "[2]": {"test_system": "Staphylococcus aureus (SA) CIP 4.83", "experimental": "as §1, §2"}, "[3]": {"test_system": "Escherichia Coli (EC) CIP 53.126", "experimental": "as §1, §2"}}}
{"substance": "asymmetrically branched C12-14 alkyl dimethyl amine oxide", "values": [{"measurement": "log reduction, log (T0/T1h), Ps Aeroginosa", "setting": "[1]", "result": 3.98}, {"measurement": "log reduction, log (T0/T1h), St. Aureus", "setting": "[2]", "result": 4.06}]}
{"substance": "symmetrically branched C12-14 alkyl dimethyl amine oxide", "values": [{"measurement": "log reduction, log (T0/T1h), E. coli", "setting": "[3]", "result": 2.6}, {"measurement": "log reduction, log (T0/T1h), Ps Aeroginosa", "setting": "[1]", "result": 3.29}]}
{"substance": "linear C12-14 alkyl dimethyl amine oxide [reference compound]", "values": [{"measurement": "log reduction, log (T0/T1h), E. coli", "setting": "[3]", "result": 0.41}, {"measurement": "log reduction, log (T0/T1h), Ps Aeroginosa", "setting": "[1]", "result": 2.10}, {"measurement": "log reduction, log (T0/T1h), St. Aureus", "setting": "[2]", "result": 0.73}]}
